Source: patent US20220127607A1, “METHODS AND MATERIALS FOR ACTIVATING AN INTERNAL RIBOSOME ENTRY SITE IN EXON 5 OF THE DMD GENE” (RESEARCH INSTITUTE AT NATIONWIDE CHILDREN'S HOSPITAL, priority 2014, published 2022)
“Also recorded” adds a separate entry of the source.

Tests used:
Dup2 mice [1] = assay: Evans blue dye (EBD) uptake / membrane protection assay; assay type: in vivo, mouse; details: Dup2 TA, 4 weeks post-injection; agent alone (U7-ACCA 5e11vg IM; PDN 1 mg/kg/day ip); untreated Dup2 14.7±6.6
Text: FIGS. 4A-4F. Intramuscular delivery of U7-ACCA results in significant N-truncated dystrophin expression in Dup2 mice, restoring localization of dystrophin-associated proteins. […] In wild type BI6 animals (FIG. 4B), the wild type transcript was 14.2% and Del2 transcript was 85.8%. (FIG. 4C) RNA-Seq read depth using a tibialis anterior muscle total RNA library from Dup2 U7-ACCA treated (upper) and Dup2 untreated (lower) mice, mapped to the 5′ region of the mouse Dmd gene (mm9, chrX:80,150,000-81,050,000). […] The protein induced in BI6 males injected with U7-ACCA is of the same size as that expressed in the Dup2 treated animals, confirming the size difference between this protein and the full-length isoform. (C-terminal antibody: PA1-21011,Thermo, Inc). […]
FIGS. 6A-6E. […] EBD-positive fibers were quantified as a percent out of a total of 5,000 fibers counted per animal.
We examined whether expression of the IRES-driven isoform improved muscle integrity and physiology in the Dup2 mouse. Similar to the case in mdx mice, dystrophic changes in Dup2 mice are quantifiable at 4 weeks of age as widespread muscle regeneration characterized by centralized nuclei (Vulin et al., manuscript in press). […] Quantification of the number of EBD positive fiber confirms that expression of the IRES driven isoform results in protection of muscle fibers in these mice (FIG. 6B). […]

Dup2 mice [2] = assay: Central nucleation of myofibers in Dup2 mouse muscle; assay type: in vivo; details: Dup2 TA, 4 weeks post-injection; agent alone (U7-ACCA 5e11vg IM; PDN 1 mg/kg/day ip); untreated Dup2 73.0±1.6
Description: Expression of the IRES-driven isoform improves muscle membrane integrity and protects Dup2 muscle from contraction-induced damage. Dup2 tibialis anterior muscles were treated by intramuscular injection of 5e11vg U7-ACCA alone or with methylprednisolone (PDN: 1 mg/kg/day intraperitoneal) and analyzed at 4 weeks post-injection. […] EBD-positive fibers were quantified as a percent out of a total of 5,000 fibers counted per animal.

dystrophin = assay: Dystrophin immunoblot in FibroMyoD cells; assay type: cell-based, human; details: Dup2 FibroMyoD cells treated with U7-ACCA and 6.4 μM PDN
dystrophin IRES [3] = details: C2C12 cells, pRDEF exon 5-6 IRES construct, increasing concentrations
Description: (§1) FIGS. 5A-5F. […] (FIG. 5A) Dual luciferase assay performed on lysates from C2C12 cells transfected with the pRDEF vector carrying the exon 5-6 IRES construct. […] Error bars representate s.d. […] The image intensity for the wild-type lane was lowered to allow identification of bands. MHC=myosin heavy chain (loading control). […] Immunoblot was performed on each muscle in duplicate, and the signals for both dystrophin and α-actinin from the resulting 5 lanes were quantified using ImageJ. […] The signals for both utrophin and α-actinin from the resulting 5 lanes were quantified using ImageJ.
(§2) Furthermore, treatment with the glucocorticoids prednisone and deflazacort are standard treatment for DMD. […] Because utrophin translation may be regulated by corticosteroids and overexpression can compensate for absent dystrophin, we assessed utrophin levels in the same injected muscles (FIG. 5E).

Dup2 mice [4] = assay: Muscle force following tetanic contraction; assay type: in vivo, mouse; details: Dup2 TA, 4 weeks; agent alone; untreated Dup2 170.9±14.3, BI6 274.0±12.1
Description: (§3) Dup2 tibialis anterior muscles were treated by intramuscular injection of 5e11vg U7-ACCA alone or with methylprednisolone (PDN: 1 mg/kg/day intraperitoneal) and analyzed at 4 weeks post-injection. […] EBD-positive fibers were quantified as a percent out of a total of 5,000 fibers counted per animal.

Dup2 mice [5] = assay: Loss of force following repetitive eccentric contractions; assay type: in vivo, mouse; details: Dup2 TA, 4 weeks; agent alone
dystrophin IRES [6] = assay: Dual luciferase IRES assay in 293K cells; assay type: cell-based
Text: FIGS. 12A-12B. […] Error bars represent s.d. […] N=4 animals per group. Error bars represent s.d.
as §2

Dup2 mice [7] = assay: Grip strength; assay type: in vivo, mouse; details: 4 weeks, agent alone, untreated Dup2 2.22±0.26, BI6 3.36±0.37
Description: as §3
(FIG. 17C) Immunostaining of dystrophin on the same samples confirms dystrophin expression and its proper localization at the sarcolemma.

utrophin = assay: Utrophin immunoblot in mouse muscle; assay type: in vivo; details: Dup2 mice, PDN 1 mg/kg/day treated versus untreated, with or without U7-ACCA
Description: as §1, §2

DMD exon 2 = assay: RT-PCR of exon 2 skipping in patient-derived FibroMyoD cells; assay type: cell-based, human
Text: FIGS. 3A-3D. Out-of-frame exon-skipping stimulates IRES activity in patient-derived cell lines. (FIG. 3A) Schematic representation of the human DMD exon 1-10 reading frame (blue) and 5′UTR (red). Blue numbers above each exon indicate cDNA positions; red numbers at the base of each exon indicate the amino acid position. The canonical actin binding domain 1 is represented, along with the predicted (via ScanProsite) CH and ABS domains. (FIG. 3B) Schematic representation of exon 2 (SEQ ID NO: 30). The selected targeted sequences are indicated below, affecting either splice acceptor (S.A.), splice donor (S.D.), or exon splice enhancer (E.S.E.) sequences (as predicted using Human Splicing Finder or ESE finder 3.0). (FIG. 3C) Two copies each of U7-C and U7-AL were cloned into the same AAV plasmid, as they were the most efficient in skipping exon 2 (see FIGS. 10A-10B). The resulting construct is referred to as U7-ACCA. RT-PCR results after infection of U7-ACCA vector (1E11 vg) or H2A antisense oligonucleotide (AON H2A) into either wt or duplicated exon 2 FibroMyoD (FM) cells. […]
In considering skipping of exons prior to the exon 5 IRES, only the removal of exon 2 will disrupt the reading frame and result in a premature stop codon (FIG. 3A). […]

Row | Compound | Evans blue dye (EBD)-positive fibers (Dup2 mice [1]) | Central nucleation (% of myofibers) (Dup2 mice [2]) | dystrophin expression (dystrophin) | IRES activity, concentration dependence (dystrophin IRES [3]) | Normalized specific force following tetanic contraction (Dup2 mice [4]) | Protection from loss of force following repetitive eccentric contractions (Dup2 mice [5]) | glucocorticoid activation of IRES (dystrophin IRES [6]) | Normalized maximum hindlimb grip strength (Dup2 mice [7]) | utrophin levels (utrophin) | exon-skipping (RT-PCR, qualitative) (DMD exon 2; control and duplicated exon 2 patient-derived FibroMyoD, 3 days post AAV infection or AON transfection) | transcript lacking exon 2 (DMD exon 2; patient cell lines carrying mutation within exon 1 to 4, AAV 1×10E11 vector genomes)
1 | C[C@H]1C[C@@H]2[C@H]([C@@H](O)C[C@@]3(C)[C@H]2CC[C@]3(O)C(=O)CO)[C@@]2(C)C=CC(=O)C=C12 [PDN, 6-methyl-prednisolone] | No significant difference | No significant difference | An increase in dystrophin expression | increases IRES activity in a dose-dependent fashion | No significant difference | No significant difference | not seen | No significant difference | no statistically significant difference; also recorded: does not increase expression of utrophin |  | 
2 | AON H2A: known antisense oligonucleotide CCAUUUUGUGAAUGUUUUCUUUUGAACAUC (SEQ ID NO: 13), positive control of exon 2 skipping (chemistry not given here) |  |  |  |  |  |  |  |  |  | lower efficiency than U7-mediated skipping | approximately 90%
